Some test systems named below: OVCAR-5 ovarian; HL-60(TB) leukemia; HS 578T breast; SK-OV-3 ovarian; MDA-MB-231 breast; SF-295 CNS; LOX IMVI melanoma; MDA-MB-435; CAKI-1 renal; MOLT-4 leukemia.
Common to all, as to experiment: NCI-60 cell line screen, 48 h

Consider seven compounds from PubChem BioAssay (NCI).

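96-well plates; 48 h exposure; 5 concentrations. Endpoints by linear interpolation between flanking doses. Not reached: highest tested concentration assigned. Here, GI50 denotes the concentration required for 50% inhibition of growth. TGI is the concentration that stops growth completely.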 Bounds are passed on as bounds.

Turning to `N#Cc1ccc2c(c1)C(=O)c1c-2n(CCCN=[N+]=[N-])c(=O)c2cc([N+](=O)[O-])ccc12`, the GI50 in the test with OVCAR-5 ovarian was more than 50 µM; in the test on HL-60(TB) leukemia it was more than 50 µM; with HS 578T breast, more than 50 µM; in the test with SK-OV-3 ovarian it was more than 50 µM; with MDA-MB-231 breast, more than 50 µM; with SF-295 CNS, 8 µM. Besides, the GI50 was 4.85 µM in the test on LOX IMVI melanoma, more than 50 µM in the test with MDA-MB-435, 9.86 µM in the test with CAKI-1 renal and 1.8 µM in the test on MOLT-4 leukemia. In addition, the TGI in the test with OVCAR-5 ovarian, in the test with HL-60(TB) leukemia, in the test on HS 578T breast, in the test on SK-OV-3 ovarian, in the test with MDA-MB-231 breast and in the test with SF-295 CNS was more than 50 µM throughout. Moreover, the TGI with LOX IMVI melanoma is more than 50 µM; in the test on MDA-MB-435, more than 50 µM; in the test on CAKI-1 renal it was more than 50 µM; in the test on MOLT-4 leukemia, 9 µM.
For `C=Cc1cnc([N+](=O)[O-])n1C`, the TGI in the test on OVCAR-5 ovarian was more than 100 µM; in the test on HL-60(TB) leukemia, more than 100 µM; in the test on HS 578T breast, 99.9 µM; in the test on SK-OV-3 ovarian, more than 100 µM; in the test on MDA-MB-231 breast, more than 100 µM; with SF-295 CNS, more than 100 µM. The TGI in the test with LOX IMVI melanoma, in the test on MDA-MB-435, in the test on CAKI-1 renal and in the test on MOLT-4 leukemia was more than 100 µM in each case.
`Cc1nn2c(/C=C3\C(=O)Nc4ccccc43)c(C)nc2s1`: the GI50 in the test with OVCAR-5 ovarian is 50.7 µM; in the test on HL-60(TB) leukemia, 21 µM; in the test on HS 578T breast it was 78 µM; in the test on SK-OV-3 ovarian, 34.8 µM; with MDA-MB-231 breast it was more than 100 µM; in the test with SF-295 CNS, 29.1 µM. Moreover, the GI50 was 97.1 µM with LOX IMVI melanoma, 2.85 µM in the test with MDA-MB-435, more than 100 µM with CAKI-1 renal and 17.5 µM in the test with MOLT-4 leukemia. For the same compound, the TGI in the test on OVCAR-5 ovarian, with HL-60(TB) leukemia, in the test with HS 578T breast, in the test on SK-OV-3 ovarian, in the test with MDA-MB-231 breast and in the test on SF-295 CNS was more than 100 µM in each case. Moreover, the TGI in the test with LOX IMVI melanoma, in the test on MDA-MB-435, with CAKI-1 renal and with MOLT-4 leukemia was more than 100 µM each time.
Take `COc1cccc2ccc3c(c12)C(=O)OC31CCc2c(C)cccc21` (stereo not given): the TGI was more than 46.4 µM with OVCAR-5 ovarian; 32.9 µM in the test with HL-60(TB) leukemia; more than 100 µM with HS 578T breast; more than 46.4 µM in the test on SK-OV-3 ovarian; more than 100 µM in the test with MDA-MB-231 breast; more than 46.4 µM with SF-295 CNS. Besides, the TGI in the test with LOX IMVI melanoma is more than 46.4 µM; with MDA-MB-435 it was more than 100 µM; in the test on CAKI-1 renal, more than 46.4 µM; in the test on MOLT-4 leukemia, 33.7 µM.
On to `Cn1c(O)c(N=NC(N)=S)c2ccccc21`, for which the GI50 in the test on OVCAR-5 ovarian was more than 100 µM; with HL-60(TB) leukemia it was 37.9 µM; in the test on HS 578T breast, 23.4 µM; in the test with SK-OV-3 ovarian, 66.8 µM; in the test with MDA-MB-231 breast, more than 100 µM; in the test on SF-295 CNS, 27.1 µM. The GI50 in the test with LOX IMVI melanoma was 58.5 µM; with MDA-MB-435, more than 100 µM; in the test on CAKI-1 renal, 23.6 µM; in the test with MOLT-4 leukemia, more than 100 µM. In addition, the TGI in the test with OVCAR-5 ovarian, in the test with HL-60(TB) leukemia, with HS 578T breast, in the test with SK-OV-3 ovarian, in the test on MDA-MB-231 breast and in the test on SF-295 CNS was more than 100 µM each time. The TGI in the test on LOX IMVI melanoma was more than 100 µM; in the test with MDA-MB-435, more than 100 µM; in the test with CAKI-1 renal, 91.7 µM; in the test with MOLT-4 leukemia, more than 100 µM.
For `C=C1C[C@@H]2[C@H](CC[C@]3(C)C(=O)CC[C@@H]23)[C@@]2(C)C=CC(=O)C=C12`, the GI50 in the test on OVCAR-5 ovarian was 37.3 µM; in the test with HL-60(TB) leukemia it was 26 µM; in the test with HS 578T breast it was 25.1 µM; in the test with SK-OV-3 ovarian it was 39.1 µM; in the test on MDA-MB-231 breast, 35 µM; in the test with SF-295 CNS, 28.5 µM. The GI50 was 19.2 µM in the test with LOX IMVI melanoma, 26.3 µM with MDA-MB-435, more than 55.9 µM in the test on CAKI-1 renal and 25.7 µM in the test on MOLT-4 leukemia. Moreover, the TGI is more than 100 µM with OVCAR-5 ovarian; more than 63.4 µM in the test with HL-60(TB) leukemia; more than 77.2 µM with HS 578T breast; more than 100 µM with SK-OV-3 ovarian; more than 100 µM in the test on MDA-MB-231 breast; 74.5 µM in the test on SF-295 CNS. The TGI is 45.5 µM with LOX IMVI melanoma, more than 81.5 µM in the test on MDA-MB-435, more than 100 µM with CAKI-1 renal and more than 92.6 µM in the test with MOLT-4 leukemia.
As to `Cc1ccc(S(=O)(=O)c2ccsc2N)cc1`, the GI50 with OVCAR-5 ovarian, in the test on HL-60(TB) leukemia, in the test on HS 578T breast, with SK-OV-3 ovarian, in the test on MDA-MB-231 breast and in the test with SF-295 CNS was more than 100 µM throughout. The GI50 in the test on LOX IMVI melanoma, with MDA-MB-435, in the test with CAKI-1 renal and in the test on MOLT-4 leukemia was more than 100 µM throughout. The TGI in the test with OVCAR-5 ovarian, in the test on HL-60(TB) leukemia, with HS 578T breast, in the test on SK-OV-3 ovarian, in the test with MDA-MB-231 breast and in the test on SF-295 CNS was more than 100 µM in each case. Further, the TGI in the test with LOX IMVI melanoma, with MDA-MB-435, in the test with CAKI-1 renal and in the test on MOLT-4 leukemia was more than 100 µM throughout.
